Legend:
Rattus norvegicus [1] = experiment: Effect on heart rate in spontaneously hypertensive rat assessed as heart rate level at 80 mg/kg, po measured after 4 hrs by tail-cuff method (reference value: 410.80 +/- 17.4 bpm); type: ADME, organism-based; settings: in vivo
Rattus norvegicus [2] = experiment: Antihypertensive activity in spontaneously hypertensive rat assessed as diastolic arterial pressure at 80 mg/kg, po measured after 4 hrs by tail-cuff method (reference value: 136.12 +/- 5.3 mmHg); type: functional
Rattus norvegicus [3] = species: Rattus norvegicus; experiment: Ratio of pA2 for alpha-1b adrenergic receptor in SPF rat spleen to pA2 for alpha-1D adrenergic receptor in SPF rat vas thoracic aorta
Rattus norvegicus [4] = experiment: Antihypertensive activity in spontaneously hypertensive rat assessed as mean arterial pressure at 80 mg/kg, po measured after 8 hrs by tail-cuff method (reference value: 153.55 +/- 11.43 mmHg); type: functional
Rattus norvegicus [5] = experiment: Antihypertensive activity in spontaneously hypertensive rat assessed as reduction in mean arterial pressure at 80 mg/kg, po measured after 4 hrs by tail-cuff method; type: functional; set-up: scale not given: the % may be the effect or the level left
Rattus norvegicus [6] = experiment: Antihypertensive activity in spontaneously hypertensive rat assessed as mean arterial pressure at 80 mg/kg, po measured after 4 hrs by tail-cuff method (reference value: 150.30 +/- 9.26 mmHg); type: functional
Rattus norvegicus [7] = experiment: Antihypertensive activity in spontaneously hypertensive rat assessed as systolic arterial pressure at 80 mg/kg, po measured after 0 hrs by tail-cuff method (reference value: 186.10 +/- 4.55 mmHg); type: functional
Rattus norvegicus [8] = experiment: Effect on heart rate in spontaneously hypertensive rat assessed as heart rate level at 80 mg/kg, po measured after 8 hrs by tail-cuff method (reference value: 412.77 +/- 11.3 bpm); type: ADME, organism-based; settings: in vivo
Rattus norvegicus [9] = experiment: Antihypertensive activity in spontaneously hypertensive rat assessed as systolic arterial pressure at 80 mg/kg, po measured after 2 hrs by tail-cuff method (reference value: 189.20 +/- 12.31 mmHg); type: functional
Rattus norvegicus [10] = experiment: Effect on heart rate in spontaneously hypertensive rat assessed as heart rate level at 80 mg/kg, po measured after 2 hrs by tail-cuff method (reference value: 413.2 +/- 15.2 bpm); type: ADME, organism-based; settings: in vivo
Rattus norvegicus [11] = experiment: Antihypertensive activity in spontaneously hypertensive rat assessed as mean arterial pressure at 80 mg/kg, po measured after 0 hrs by tail-cuff method (reference value: 161.70 +/- 5.12 mmHg); type: functional
Rattus norvegicus [12] = experiment: Antihypertensive activity in spontaneously hypertensive rat assessed as mean arterial pressure at 80 mg/kg, po measured after 1 hr by tail-cuff method (reference value: 160 +/- 9.97 mmHg); type: functional
Rattus norvegicus [13] = experiment: Effect on heart rate in spontaneously hypertensive rat assessed as heart rate level at 80 mg/kg, po measured after 0 hrs by tail-cuff method (reference value: 413.17 +/- 10.5 bpm); type: ADME, organism-based; settings: in vivo
Thoracic aorta = experiment: Vasodilatory activity in Sprague-Dawley rat thoracic aorta assessed as inhibition of noradrenaline-induced contractions at 10 uM relative to untreated control; type: functional
Rattus norvegicus [14] = experiment: Effect on heart rate in spontaneously hypertensive rat assessed as heart rate level at 80 mg/kg, po measured after 1 hr by tail-cuff method (reference value: 415.25 +/- 14.7 bpm); type: ADME, organism-based; settings: in vivo
Rattus norvegicus [15] = experiment: Antihypertensive activity in spontaneously hypertensive rat assessed as diastolic arterial pressure at 80 mg/kg, po measured after 8 hrs by tail-cuff method (reference value: 140.61 +/- 10.3 mmHg); type: functional
Rattus norvegicus [16] = experiment: Antihypertensive activity in spontaneously hypertensive rat assessed as systolic arterial pressure at 80 mg/kg, po measured after 1 hr by tail-cuff method (reference value: 185.35 +/- 10.30 mmHg); type: functional
[17] = molecular target: T1, Alpha-1A adrenergic receptor (Rattus norvegicus, UniProt P43140); experiment: Antagonist activity at alpha-1a adrenergic receptor in SPF rat prostatic vas deferens assessed as inhibition of noradrenaline-induced contractions; settings: read-out: pA2 (converted)
T1 sequence (P43140 whole entry): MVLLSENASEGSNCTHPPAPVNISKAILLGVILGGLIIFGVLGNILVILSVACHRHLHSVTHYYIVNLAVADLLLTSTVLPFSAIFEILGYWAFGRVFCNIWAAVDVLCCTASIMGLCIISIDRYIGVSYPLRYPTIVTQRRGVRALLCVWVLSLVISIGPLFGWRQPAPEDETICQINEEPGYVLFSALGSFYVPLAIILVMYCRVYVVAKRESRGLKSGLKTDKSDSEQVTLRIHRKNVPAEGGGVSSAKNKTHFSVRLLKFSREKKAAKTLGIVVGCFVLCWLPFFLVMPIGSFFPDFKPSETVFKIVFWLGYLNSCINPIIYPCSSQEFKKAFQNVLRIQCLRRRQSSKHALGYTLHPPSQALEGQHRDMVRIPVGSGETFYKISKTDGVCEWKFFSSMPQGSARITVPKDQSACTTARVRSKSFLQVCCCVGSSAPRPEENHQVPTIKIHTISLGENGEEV

Rattus norvegicus [18] = experiment: Antihypertensive activity in spontaneously hypertensive rat assessed as systolic arterial pressure at 80 mg/kg, po measured after 8 hrs by tail-cuff method (reference value: 179.42 +/- 13.70 mmHg); type: functional
[19] = molecular target: T2, Alpha-1B adrenergic receptor (Rattus norvegicus, UniProt P15823); experiment: Antagonist activity at alpha-1b adrenergic receptor in SPF rat spleen assessed as inhibition of noradrenaline-induced contractions; type: tissue-based; settings: read-out: pA2 (converted)
T2 sequence (P15823 whole entry): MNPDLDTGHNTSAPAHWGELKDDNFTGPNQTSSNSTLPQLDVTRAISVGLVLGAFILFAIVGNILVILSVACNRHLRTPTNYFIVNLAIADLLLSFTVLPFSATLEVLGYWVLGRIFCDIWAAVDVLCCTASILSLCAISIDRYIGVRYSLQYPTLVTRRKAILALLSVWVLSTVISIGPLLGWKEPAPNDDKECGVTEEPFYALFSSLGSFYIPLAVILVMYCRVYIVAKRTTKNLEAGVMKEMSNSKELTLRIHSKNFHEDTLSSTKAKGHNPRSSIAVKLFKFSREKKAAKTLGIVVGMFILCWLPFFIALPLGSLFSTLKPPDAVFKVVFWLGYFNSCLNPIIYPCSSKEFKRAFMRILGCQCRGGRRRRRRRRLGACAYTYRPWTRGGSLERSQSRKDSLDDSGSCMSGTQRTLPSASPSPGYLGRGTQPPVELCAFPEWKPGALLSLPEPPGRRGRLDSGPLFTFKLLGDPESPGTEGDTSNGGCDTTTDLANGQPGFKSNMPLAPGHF

Rattus norvegicus [20] = experiment: Antihypertensive activity in spontaneously hypertensive rat assessed as mean arterial pressure at 80 mg/kg, po measured after 2 hrs by tail-cuff method (reference value: 163 +/- 8.1 mmHg); type: functional
Rattus norvegicus [21] = experiment: Antihypertensive activity in spontaneously hypertensive rat assessed as diastolic arterial pressure at 80 mg/kg, po measured after 1 hr by tail-cuff method (reference value: 147.33 +/- 9.8 mmHg); type: functional
Rattus norvegicus [22] = experiment: Antihypertensive activity in spontaneously hypertensive rat assessed as systolic arterial pressure at 80 mg/kg, po measured after 6 hrs by tail-cuff method (reference value: 179.36 +/- 18.33 mmHg); type: functional

SMILES: COc1cc2c(cc1OCC(O)CN1CCN(C(=O)C3CCCO3)CC1)C(=O)C(C)OC2 (stereo not drawn)
- Activity (Rattus norvegicus [1]): 405.15 bpm
- Activity (Rattus norvegicus [2]): 120.54 mmHg
- Ratio (Rattus norvegicus [3]): 5.6
- Activity (Rattus norvegicus [4]): 151.39 mmHg
- Activity (Rattus norvegicus [5]): 23.7%
- Activity (Rattus norvegicus [6]): 127.12 mmHg
- Activity (Rattus norvegicus [7]): 187.64 mmHg
- Activity (Rattus norvegicus [8]): 413.16 bpm
- Activity (Rattus norvegicus [9]): 150.8 mmHg
- Activity (Rattus norvegicus [10]): 408.14 bpm
- Activity (Rattus norvegicus [11]): 166.7 mmHg
- Activity (Rattus norvegicus [12]): 152.5 mmHg
- Activity (Rattus norvegicus [13]): 415.33 bpm
- inhibition at 10 µM (Thoracic aorta): 41.6%
- Activity (Rattus norvegicus [14]): 409.3 bpm
- Activity (Rattus norvegicus [15]): 141.89 mmHg
- Activity (Rattus norvegicus [16]): 169.21 mmHg
- Kb [17]: 224 nM
- Activity (Rattus norvegicus [18]): 170.38 mmHg
- Kb [19]: 35.5 nM
- Activity (Rattus norvegicus [20]): 138.17 mmHg
- Activity (Rattus norvegicus [21]): 144.15 mmHg
- Activity (Rattus norvegicus [22]): 157.46 mmHg

From ChEMBL document CHEMBL4340549, “Design, synthesis and biological evaluation of isochroman-4-one hybrids bearing piperazine moiety as antihypertensive agent candidates” (Bioorg Med Chem, 2019)
